From paper PMC10023787, “Trio-pharmacophore DNA-encoded chemical library for simultaneous selection of fragments and linkers” (Nature Communications, 2023)
Where two headings read alike, the source gives them in different places. One block for each compound: values may come before it.

What was measured:
[1] = target: T1, MMP-2 (Homo sapiens, UniProt P08253); assay: MMP-2 inhibition assay (fluorogenic peptide substrate); format: biochemical; settings: for inhibitory effect: in words; for IC50: mean ± SE, n.d: not detected, Fig. 5d unit inferred, µM, read-out: IC50
T1 construct: purchased Sino Biological 10082-HNAH
T1 sequence (P08253 110-660): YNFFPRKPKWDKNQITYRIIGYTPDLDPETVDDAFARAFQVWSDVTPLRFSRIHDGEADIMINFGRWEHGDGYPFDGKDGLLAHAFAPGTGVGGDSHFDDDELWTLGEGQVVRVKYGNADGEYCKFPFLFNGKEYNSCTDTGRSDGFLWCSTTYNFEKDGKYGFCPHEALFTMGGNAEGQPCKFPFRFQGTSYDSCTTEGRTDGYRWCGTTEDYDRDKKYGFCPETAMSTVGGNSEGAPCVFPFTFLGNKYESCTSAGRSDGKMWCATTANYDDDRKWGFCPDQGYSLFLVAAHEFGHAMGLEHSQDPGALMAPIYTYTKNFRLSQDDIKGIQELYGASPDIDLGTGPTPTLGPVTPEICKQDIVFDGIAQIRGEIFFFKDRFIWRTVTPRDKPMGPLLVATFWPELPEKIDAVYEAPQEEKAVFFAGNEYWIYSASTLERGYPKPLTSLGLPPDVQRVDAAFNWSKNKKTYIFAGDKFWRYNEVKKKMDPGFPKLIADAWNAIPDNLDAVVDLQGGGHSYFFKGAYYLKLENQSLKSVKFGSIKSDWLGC
Method in brief: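 Hydrolysis of DNP-Pro-Leu-Gly-Met-Trp-Ser-Arg (25 μM final) was tracked kinetically at em 360 nm over 30 min. Enzymes, APMA-activated and at 10 nM (MMP-9) or 6.5 nM (MMP-2) final, sat 30 min at RT with inhibitor in pH 7.5 Tris buffer with CaCl2 and Brij 35 first. Logistic fitting of Vmax against concentration gave IC50, in triplicate.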

[2] = target: T1, MMP-2; assay: De novo T-DEL selection against MMP-2, NGS decoding; format: binding
Text: Matrix metalloproteinases (MMPs) are zinc-dependent endopeptidases capable of degrading and remodeling extracellular matrix components[46],[47]. They are attractive therapeutic targets as high expression levels were detected in various diseases, such as inflammatory diseases, and at different stages of cancers, including metastasis, invasion, and angiogenesis[47]–[53]. As shown in Supplementary Fig. 3c, we performed selections against the two gelatinases (human MMP-2 and human MMP-9) to identify binding fragments for later design and synthesis of small molecule inhibitors. After selection, the three sub-libraries were decoded, and the enrichment was calculated by dividing the post-selection fraction (count/total counts) by the pre-selection fraction (Fig. 4a and Supplementary Fig. 13).
4 µg of MMP-2/MMP-9 was dissolved in 100 µl of selection buffer containing 25 mM Tris-base, 10 mM CaCl2, 150 mM NaCl, 0.05% Tween 20, pH 7.5. 10 µl of 4-Aminophenylmercuric acetate (APMA) (100 mM) solution was added to the protein solution and incubated at 37 °C for 1 h. After activation, the solution was added on top of 40 µl pre-washed Ni-NTA resin and incubated for 30 min on a rotary shaker. The supernatant was discarded, and the resin was washed three times with the selection buffer.
For each independent selection, three sub-libraries were mixed in the selection buffer with a final concentration of 40 nM of each sub-library in 100 µl. The mixture was heat denatured at 90 °C for 1 min and slowly cooled down to allow the formation of the trio-pharmacophore library. The dynamic dual-pharmacophore DEL was provided by DyNAbind GmbH (Merck, DYNA001).
The assembled library was incubated with the protein-bound solid support for 2 h at RT on a rotary shaker. In parallel, selection on bare solid support served as the negative control to exclude promiscuous binders on the resin. After panning, the supernatant was discarded, and the resin was washed three times with 1 ml selection buffer. Finally, 100 µl of 50 mM Tris buffer, pH 7.4 was added to resuspend the resin and the resin was incubated at 95 °C for 5 min to denature the protein, release, and collect the bound library members.
The eluted library members were subjected to sample preparation for NGS. NGS preparation was achieved by two-step PCR. First, the individual selection was indexed using primers containing unique sequences corresponding to each selection. The amplified product was purified from 2% agarose gel. Second, the purified DNA from all selections were pooled in equal amount and subjected to the 2nd PCR step to attach sequences compatible with the NGS flow cell and the sequencing primers. NGS was performed by Novogene UK with Novaseq 6000. Raw data files (fastq files) obtained were decoded using a custom python script and excel. The sequence reads corresponding to each sample was retrieved by searching for the correct index unique to each selection. Then, the code region was extracted from each sequence and assigned to the corresponding identity. The count of each code in each selection sample was obtained by looping through the total reads and counting the occurrence of each code. The enrichment fold of each compound was calculated by first, dividing the count by the total count to get the abundance, second, the abundance after the selection was divided by the abundance of pre-selection to reflect the distribution change of the compound. Next, the enrichment fold was plotted against the count for each member of the library to give the scatter plots as in Fig. 4.

[3] = read-out: Mean (MMP-2, Supplementary fig 16)
[4] = read-out: Mean (MMP-2 dose-response, Supplementary fig 15)
[5] = read-out: Mean (dose-response, Supplementary fig 17)
[6] = read-out: Normalized activity (Mean)

Structure (SMILES): O=C(O)c1cncc(O)c1 [Compound 828]
inhibitory effect [1]: high µM range
IC50 [1]: 385 ± 67.3 µM
remaining activity at 0.0156 µM [1, 3]: 104%
remaining activity at 0.08 µM [1, 3]: 94%
remaining activity at 0.39 µM [1, 3]: 105%
remaining activity at 1.95 µM [1, 3]: 107%
remaining activity at 9.76 µM [1, 3]: 90.1%
remaining activity at 48.78 µM [1, 3]: 83.6%
remaining activity at 243.9 µM [1, 3]: 67.9%
remaining activity at 1219.51 µM [1, 3]: 0%
remaining activity at 0.0156 µM [1, 4]: 104%
remaining activity at 0.08 µM [1, 4]: 94%
remaining activity at 0.39 µM [1, 4]: 105%
remaining activity at 1.95 µM [1, 4]: 107%
remaining activity at 9.76 µM [1, 4]: 90.1%
remaining activity at 48.78 µM [1, 4]: 83.6%
remaining activity at 243.9 µM [1, 4]: 67.9%
remaining activity at 1219.51 µM [1, 4]: 0%
remaining activity at 0.0156 µM [1, 5]: 104%
remaining activity at 0.08 µM [1, 5]: 94%
remaining activity at 0.39 µM [1, 5]: 105%
remaining activity at 1.95 µM [1, 5]: 107%
remaining activity at 9.76 µM [1, 5]: 90.1%
remaining activity at 48.78 µM [1, 5]: 83.6%
remaining activity at 243.9 µM [1, 5]: 67.9%
remaining activity at 1219.51 µM [1, 5]: 0%
remaining activity at 0.0156098 µM [1, 6]: 104%
remaining activity at 0.0780488 µM [1, 6]: 94%
remaining activity at 0.390244 µM [1, 6]: 105%
remaining activity at 1.95122 µM [1, 6]: 107%
remaining activity at 9.7561 µM [1, 6]: 90.1%
remaining activity at 48.7805 µM [1, 6]: 83.6%
remaining activity at 243.902 µM [1, 6]: 67.9%
remaining activity at 1219.51 µM [1, 6]: 0%
MMP2 SL-C Enrichment Fold ([2]; enrichment fold of sub-library SL-C member, MMP-2 selection, Figure 4a source data): 4.434
MMP2 SL-C Count ([2]; sequence count of sub-library SL-C member, MMP-2 selection, Figure 4a source data): 13025

remaining activity at 0.0156098 µM ([1]; Figure 5a, fragment concentration 0.0156098 µM, read-out: Normalized activity (Mean)): 93%
remaining activity at 0.0780488 µM ([1]; Figure 5a, fragment concentration 0.0780488 µM, read-out: Normalized activity (Mean)): 96.4%
remaining activity at 0.390244 µM ([1]; Figure 5a, fragment concentration 0.390244 µM, read-out: Normalized activity (Mean)): 90.7%
remaining activity at 1.95122 µM ([1]; Figure 5a, fragment concentration 1.95122 µM, read-out: Normalized activity (Mean)): 92.4%
remaining activity at 9.7561 µM ([1]; Figure 5a, fragment concentration 9.7561 µM, read-out: Normalized activity (Mean)): 83.6%
remaining activity at 48.7805 µM ([1]; Figure 5a, fragment concentration 48.7805 µM, read-out: Normalized activity (Mean)): 70.5%
remaining activity at 243.902 µM ([1]; Figure 5a, fragment concentration 243.902 µM, read-out: Normalized activity (Mean)): 41.9%
remaining activity at 1219.51 µM ([1]; Figure 5a, fragment concentration 1219.51 µM, read-out: Normalized activity (Mean)): 5.76%
remaining activity at 0.0156 µM ([1]; MMP-2, concentration 0.0156 µM, read-out: Mean (MMP-2 dose-response, Supplementary fig 15)): 93%
remaining activity at 0.08 µM ([1]; MMP-2, concentration 0.08 µM, read-out: Mean (MMP-2 dose-response, Supplementary fig 15)): 96.3%
remaining activity at 0.39 µM ([1]; MMP-2, concentration 0.39 µM, read-out: Mean (MMP-2 dose-response, Supplementary fig 15)): 90.7%
remaining activity at 1.95 µM ([1]; MMP-2, concentration 1.95 µM, read-out: Mean (MMP-2 dose-response, Supplementary fig 15)): 92.4%
remaining activity at 9.75 µM ([1]; MMP-2, concentration 9.75 µM, read-out: Mean (MMP-2 dose-response, Supplementary fig 15)): 83.6%
remaining activity at 9.76 µM ([1]; MMP-2, concentration 9.76 µM, read-out: Mean (MMP-2 dose-response, Supplementary fig 15)): 83.6%
remaining activity at 48.76 µM ([1]; MMP-2, concentration 48.76 µM, read-out: Mean (MMP-2 dose-response, Supplementary fig 15)): 70.5%
remaining activity at 48.78 µM ([1]; MMP-2, concentration 48.78 µM, read-out: Mean (MMP-2 dose-response, Supplementary fig 15)): 70.5%
remaining activity at 243.8 µM ([1]; MMP-2, concentration 243.80 µM, read-out: Mean (MMP-2 dose-response, Supplementary fig 15)): 41.9%
remaining activity at 243.9 µM ([1]; MMP-2, concentration 243.90 µM, read-out: Mean (MMP-2 dose-response, Supplementary fig 15)): 41.9%
remaining activity at 1219.51 µM ([1]; MMP-2, concentration 1219.51 µM, read-out: Mean (MMP-2 dose-response, Supplementary fig 15)): 5.76%
inhibitory effect [1]: high µM range
IC50 [1]: 169 ± 15.8 µM
MMP2 SL-A Count ([2]; NGS sequence count of sub-library SL-A building block, de novo T-DEL selection against MMP-2): 3710
MMP2 SL-C Count ([2]; NGS sequence count of sub-library SL-C building block, de novo T-DEL selection against MMP-2): 1010
MMP2 SL-A Enrichment Fold ([2]; sub-library SL-A building block, de novo T-DEL selection against MMP-2): 2.312
MMP2 SL-C Enrichment Fold ([2]; sub-library SL-C building block, de novo T-DEL selection against MMP-2): 1.213
Structure (SMILES): Cc1cc(=O)[nH]c(-n2nc(C)c(CCC(=O)O)c2C)n1 [Compound 693]
